Measured values as given in EPA's ToxRefDB 2.

Columns and labels:
[1] = tested on: dog; conditions: Chronic toxicity; beagle; Oral; Capsule; dose end: 26 week; group: systemic; systemic / in life observation / body weight / body weight gain + systemic / in life observation / clinical signs / [other] + systemic / in …
[2] = tested on: rat; conditions: Prenatal developmental toxicity study, sprague dawley, Oral, Gavage/Intubation, dose end: 17 GD
[3] = tested on: rabbit; conditions: Prenatal developmental toxicity study, new zealand white, Oral, Gavage/Intubation, dose end: 19 GD, group: maternal
[4] = tested on: rat; conditions: Sub-acute repeat dose toxicity, sprague dawley, Oral, Gavage/Intubation, dose end: 28 day, group: systemic
[5] = tested on: rabbit; conditions: Prenatal developmental toxicity study, new zealand white, Oral, Gavage/Intubation, dose end: 19 GD, group: maternal; remark: listed apart in the source
[6] = tested on: rat; conditions: Prenatal developmental toxicity study, sprague dawley, Oral, Gavage/Intubation, dose end: 17 GD; remark: listed apart in the source
[7] = tested on: dog; conditions: Sub-acute repeat dose toxicity, beagle, Oral, Capsule, dose end: 4 week, group: systemic
[8] = tested on: rat; conditions: Fertility (Segment I); sprague dawley; Oral; Gavage/Intubation; dose end: 7 GD; group: parental; systemic / in life observation / body weight / body weight + systemic / in life observation / clinical signs / abnormal gait + systemic / in…
[9] = tested on: rat; conditions: Multigenerational reproductive toxicity study, sprague dawley, Oral, Water, dose end: 3 generation, systemic / pathology microscopic / liver / apoptosis + systemic / pathology microscopic / liver / glycogen deposition
[10] = tested on: rat; conditions: Peri- and post-natal toxicity study (Segment III), sprague dawley, Oral, Gavage/Intubation, dose end: 5 PND
[11] = tested on: mouse; conditions: Prenatal developmental toxicity study, swiss albino, Oral, Gavage/Intubation, dose end: 16 GD
[12] = tested on: rat; conditions: Prenatal developmental toxicity study, wistar, Injection, Intramuscular, dose end: 15 GD
[13] = tested on: rat; conditions: Prenatal developmental toxicity study, sprague dawley, Injection, Intramuscular, dose end: 15 GD
[14] = tested on: rat; conditions: Prenatal developmental toxicity study, sprague dawley, Oral, [Not Specified], dose end: 15 GD
[15] = tested on: rat; conditions: Prenatal developmental toxicity study, sprague dawley, Injection, Subcutaneous, dose end: 15 GD
[16] = tested on: rat; conditions: Prenatal developmental toxicity study, sprague dawley, Oral, Gavage/Intubation, dose end: 19 GD
[17] = tested on: rat; conditions: Prenatal developmental toxicity study, sprague dawley, Oral, Gavage/Intubation, dose end: 19 GD; remark: listed apart in the source
[18] = tested on: mouse; conditions: Prenatal developmental toxicity study, other, Oral, Water, dose end: 19 GD
[19] = group: developmental, developmental / developmental malformation / mouth / jaw / cleft palate
[20] = group: maternal, systemic / in life observation / body weight / body weight gain + systemic / in life observation / clinical signs / abnormal gait + systemic…
[21] = systemic / in life observation / body weight / body weight gain + systemic / in life observation / food consumption / food consumption
[22] = systemic / in life observation / body weight / body weight gain + systemic / in life observation / food consumption / food consumption + …
[23] = systemic / in life observation / clinical signs / unsteady gait + systemic / in life observation / body weight / body weight gain
[24] = systemic / in life observation / clinical signs / unsteady gait + systemic / in life observation / body weight / body weight gain + systemic…
[25] = systemic / in life observation / body weight / body weight gain + systemic / in life observation / clinical signs / defecation + systemic / …
[26] = systemic / in life observation / clinical signs / abnormal feces + systemic / in life observation / clinical signs / body cold to touch + …
[27] = group: developmental, developmental / developmental malformation / mouth / jaw / cleft palate + systemic / in life observation / body weight / fetal weight
[28] = group: maternal, systemic / in life observation / clinical signs / impaired righting reflex + systemic / in life observation / clinical signs / piloerection
[29] = systemic / clinical chemistry / albumin / albumin + systemic / clinical chemistry / cholesterol / cholesterol + systemic / clinical …
[30] = systemic / clinical chemistry / cholesterol / cholesterol + systemic / clinical chemistry / lipids / phospholipids
[31] = group: developmental, developmental / offspring survival late / viability index / viability index + developmental / developmental landmark / vaginal opening / …
[32] = group: maternal, reproductive / offspring survival early / dead fetuses / dead fetuses
[33] = group: offspring, systemic / in life observation / body weight / offspring (pup) weight
[34] = group: offspring, systemic / in life observation / body weight / offspring (pup) weight + systemic / organ weight / prostate / absolute + systemic / organ …
[35] = group: developmental, developmental / developmental malformation / general / hemorrhage + developmental / developmental malformation / kidney / dilated renal …
[36] = group: maternal, reproductive / reproductive performance / implantations / implantations + reproductive / reproductive performance / postimplantation loss / …
[37] = group: developmental, developmental / developmental malformation / bone / wavy + developmental / developmental malformation / heart / membranous ventricular …
[38] = group: maternal, reproductive / reproductive performance / postimplantation loss / postimplantation loss
[39] = group: developmental, developmental / developmental malformation / bone / wavy + systemic / in life observation / body weight / fetal weight
[40] = group: developmental, developmental / developmental malformation / bone / unossified + systemic / in life observation / body weight / fetal weight
[41] = group: maternal, systemic / in life observation / body weight / body weight gain + systemic / in life observation / clinical signs / salivation
[42] = group: maternal, systemic / in life observation / body weight / body weight gain + systemic / in life observation / clinical signs / salivation + systemic / …
[43] = group: maternal, reproductive / reproductive performance / postimplantation loss / postimplantation loss + reproductive / reproductive performance / …
[44] = group: developmental, developmental / developmental malformation / bone / delayed ossification + developmental / developmental malformation / bone / exencephaly…
[45] = group: maternal, reproductive / reproductive performance / resorptions / resorptions + systemic / in life observation / body weight / body weight + systemic…

COc1cccc(-c2ccc(/C=C\CN3CCCCCC3)cc2Cl)c1.Cl
LEL [1]: 15 mg/kg/day
LOAEL [1]: 15 mg/kg/day
NEL [1]: 7.5 mg/kg/day
NOAEL [1]: 7.5 mg/kg/day
LEL [2, 19]: 75 mg/kg/day
LOAEL [2, 19]: 75 mg/kg/day
NEL [2, 19]: 35 mg/kg/day
NOAEL [2, 19]: 35 mg/kg/day
LEL [2, 20]: 35 mg/kg/day
LOAEL [2, 20]: 35 mg/kg/day
NEL [2, 20]: 15 mg/kg/day
NOAEL [2, 20]: 15 mg/kg/day
LEL [3, 21]: 35 mg/kg/day
LOAEL [3, 21]: 35 mg/kg/day
NEL [3, 22]: 15 mg/kg/day
NOAEL [3, 22]: 15 mg/kg/day
LOAEL [4, 23]: 30 mg/kg/day
NOAEL [4, 23]: < 30 mg/kg/day
LEL [4, 24]: 30 mg/kg/day
NEL [4, 24]: < 30 mg/kg/day
LEL [5, 25]: 25 mg/kg/day
NEL [5, 25]: < 25 mg/kg/day
LOAEL [5, 26]: > 150 mg/kg/day
NOAEL [5, 26]: ≥ 150 mg/kg/day
LEL [6, 19]: 60 mg/kg/day
LOAEL [6, 19]: 60 mg/kg/day
NEL [6, 27]: 30 mg/kg/day
NOAEL [6, 27]: 30 mg/kg/day
LEL [6, 28]: 30 mg/kg/day
LOAEL [6, 28]: 30 mg/kg/day
NEL [6, 28]: < 30 mg/kg/day
NOAEL [6, 28]: < 30 mg/kg/day
LOAEL [7, 29]: 10 mg/kg/day
NOAEL [7, 29]: 5 mg/kg/day
LEL [7, 30]: 5 mg/kg/day
NEL [7, 30]: < 5 mg/kg/day
LEL [8]: 90 mg/kg/day
LOAEL [8]: 90 mg/kg/day
NEL [8]: 30 mg/kg/day
NOAEL [8]: 30 mg/kg/day

CCCCCCCCc1ccc(O)cc1 [4-Octylphenol]
LEL ([9]; group: offspring): 1.25 mg/kg/day
LOAEL ([9]; group: offspring): > 1.25 mg/kg/day
NEL ([9]; group: offspring): < 1.25 mg/kg/day
NOAEL ([9]; group: offspring): ≥ 1.25 mg/kg/day
LEL ([9]; group: parental): 1.25 mg/kg/day
LOAEL ([9]; group: parental): > 1.25 mg/kg/day
NEL ([9]; group: parental): < 1.25 mg/kg/day
NOAEL ([9]; group: parental): ≥ 1.25 mg/kg/day
LEL ([10]; group: developmental, developmental / developmental landmark / vaginal opening / vaginal opening + developmental / developmental landmark / preputial separation…): 50 mg/kg/day
LOAEL [10, 31]: > 100 mg/kg/day
NEL [10, 31]: 25 mg/kg/day
NOAEL [10, 31]: ≥ 100 mg/kg/day
LEL [10, 32]: 50 mg/kg/day
LOAEL [10, 32]: > 100 mg/kg/day
NEL [10, 32]: 25 mg/kg/day
NOAEL [10, 32]: ≥ 100 mg/kg/day
LOAEL [10, 33]: 25 mg/kg/day
NOAEL [10, 33]: 12.5 mg/kg/day
LEL [10, 34]: 12.5 mg/kg/day
NEL [10, 34]: < 12.5 mg/kg/day

CC(C)OC(=O)C(C)(C)Oc1ccc(C(=O)c2ccc(Cl)cc2)cc1 [Fenofibrate]
LEL [11, 35]: 11.7 mg/kg/day
LOAEL [11, 35]: > 586 mg/kg/day
NEL [11, 35]: < 11.7 mg/kg/day
NOAEL [11, 35]: ≥ 586 mg/kg/day
LEL [11, 36]: 586 mg/kg/day
LOAEL [11, 36]: > 586 mg/kg/day
NEL [11, 36]: 117 mg/kg/day
NOAEL [11, 36]: ≥ 586 mg/kg/day

OCC(O)CO [Glycerol]
LEL [12, 37]: 600 mg/kg/day
LOAEL [12, 37]: > 600 mg/kg/day
NEL [12, 37]: < 600 mg/kg/day
NOAEL [12, 37]: ≥ 600 mg/kg/day
LEL [12, 38]: 600 mg/kg/day
LOAEL [12, 38]: > 600 mg/kg/day
NEL [12, 38]: < 600 mg/kg/day
NOAEL [12, 38]: ≥ 600 mg/kg/day
LOAEL [13, 37]: > 1200 mg/kg/day
NOAEL [13, 37]: ≥ 1200 mg/kg/day
LEL [13, 39]: 300 mg/kg/day
NEL [13, 39]: < 300 mg/kg/day
LEL [13, 38]: 300 mg/kg/day
LOAEL [13, 38]: > 1200 mg/kg/day
NEL [13, 38]: < 300 mg/kg/day
NOAEL [13, 38]: ≥ 1200 mg/kg/day
LEL [14, 37]: 600 mg/kg/day
LOAEL [14, 37]: > 1200 mg/kg/day
NEL [14, 37]: < 600 mg/kg/day
NOAEL [14, 37]: ≥ 1200 mg/kg/day
LEL [14, 38]: 600 mg/kg/day
LOAEL [14, 38]: > 1200 mg/kg/day
NEL [14, 38]: < 600 mg/kg/day
NOAEL [14, 38]: ≥ 1200 mg/kg/day
LEL [15, 37]: 600 mg/kg/day
LOAEL [15, 37]: > 600 mg/kg/day
NEL [15, 37]: < 600 mg/kg/day
NOAEL [15, 37]: ≥ 600 mg/kg/day
LEL [15, 38]: 600 mg/kg/day
LOAEL [15, 38]: > 600 mg/kg/day
NEL [15, 38]: < 600 mg/kg/day
NOAEL [15, 38]: ≥ 600 mg/kg/day

CN=C=S [Methyl isothiocyanate]
LEL [16, 40]: 30 mg/kg/day
LOAEL [16, 40]: 30 mg/kg/day
NEL [16, 40]: 10 mg/kg/day
NOAEL [16, 40]: 10 mg/kg/day
LEL [16, 41]: 10 mg/kg/day
LOAEL [16, 41]: 10 mg/kg/day
NEL [16, 42]: 3 mg/kg/day
NOAEL [16, 42]: 3 mg/kg/day

CCC#N [Propionitrile]
LEL ([17]; group: developmental, developmental / developmental malformation / bone / unossified): 40 mg/kg/day
LOAEL [17, 40]: > 80 mg/kg/day
NEL [17, 40]: 20 mg/kg/day
NOAEL [17, 40]: ≥ 80 mg/kg/day
LEL [17, 43]: 80 mg/kg/day
LOAEL [17, 43]: > 80 mg/kg/day
NEL [17, 43]: 40 mg/kg/day
NOAEL [17, 43]: ≥ 80 mg/kg/day

Cl.Cl.NCCNCCNCCN [Trientine hydrochloride]
LOAEL [18, 44]: > 1600 mg/kg/day
NEL [18, 44]: 400 mg/kg/day
NOAEL [18, 44]: ≥ 1600 mg/kg/day
LEL ([18]; group: developmental, developmental / developmental malformation / bone / delayed ossification + developmental / developmental malformation / bone / microcephaly…): 800 mg/kg/day
LEL [18, 45]: 1600 mg/kg/day
LOAEL [18, 45]: > 1600 mg/kg/day
NEL [18, 45]: 800 mg/kg/day
NOAEL [18, 45]: ≥ 1600 mg/kg/day
